Results: US10961163B2, “Compositions and methods useful for enhancing the microbial conversion of nitrate into ammonium” (The Regents of the University of California, priority 2016, dated 2021)
Like-named read-outs stand apart in the source and are kept apart here. Peptide text beside a SMILES is read from it.

Test system: microbial enrichment cultures
Experiment: Ammonium production normalized by growth (NH4+/OD ratio) of microbial enrichment cultivated on individual carbon sources
Type: cell-based
[1] = average of 8 independent cultures amended with varying concentrations of the carbon source, ammonium by colorimetric (Bertholet) assay, growth by OD 600

Row | SMILES | Ammonium/OD ratio [1] | Ammonium/OD ratio
1 | O=C(O)CC(O)C(=O)O (racemic) [D,L-Malic Acid] | 1.41 | 
2 | NCC(=O)NC(CC(=O)O)C(=O)O (racemic) [Gly-DL-Asp] | 1.17 | 
3 | CC(O)C(=O)[O-].[Na+] (racemic) [Sodium D,L-Lactate] | 0.91 | 
4 | O=CC[C@H](O)[C@H](O)CO [2-Deoxy-D-Ribose] | 1.00 | 
5 | O=C(O)c1ccc(O)cc1 [4-Hydroxybenzoic Acid] | 1.31 | 
6 | O=C(CO)[C@@H](O)[C@H](O)[C@@H](O)C(=O)[O-].[K+] [5-Keto-D-Gluconic Acid potassium salt] | 1.12 | 
7 | Cl.Nc1ncnc2nc[nH]c12.O [Adenine hydrochloride hydrate] | 0.93 | 
8 | Nc1ncnc2c1ncn2[C@@H]1O[C@H](CO)[C@@H](O)[C@H]1O [Adenosine] | 1.25 | 
9 | OC[C@H]1O[C@@H](O[C@H]2[C@H](O)[C@@H](O)[C@H](O)O[C@@H]2CO)[C@H](O)[C@@H](O)[C@H]1O [Beta-Lactose] | 0.99 | 
10 | C[N+](C)(C)CC(O)CC(=O)[O-].Cl (centres unmarked) [Carnitine Hydrochloride] | 1.45 | 
11 | O=C(O)CC(O)(CC(=O)O)C(=O)O [Citric Acid] | 1.65 | 
12 | Nc1ccn([C@@H]2O[C@H](CO)[C@@H](O)[C@H]2O)c(=O)n1 [Cytidine] | 1.64 | 
13 | Nc1cc[nH]c(=O)n1 [Cytosine] | 1.37 | 
14 | C[C@@H](N)C(=O)O [D-Alanine] | 1.08 | 
15 | O=C[C@@H](O)[C@H](O)[C@H](O)CO [D-Arabinose] | 1.21 | 
16 | OC[C@H]1O[C@@H](O[C@H]2[C@H](O)[C@@H](O)[C@H](O)O[C@@H]2CO)[C@H](O)[C@@H](O)[C@@H]1O [D-Cellobiose] | 1.14 | 
17 | O=C(CO)[C@@H](O)[C@H](O)[C@H](O)CO [D-Fructose] | 1.42 | 
18 | O=C[C@H](O)[C@@H](O)[C@@H](O)[C@H](O)CO [D-Galactose] | 0.93 | 
19 | O.O=C[C@H](O)[C@@H](O)[C@@H](O)[C@H](O)C(=O)O [D-Galacturonic Acid monohydrate] | 0.92 | 
20 | O=C([O-])[C@H](O)[C@@H](O)[C@H](O)[C@H](O)CO.[Na+] [D-Gluconic Acid sodium salt] | 1.19 | 
21 | Cl.N[C@H]1C(O)O[C@H](CO)[C@@H](O)[C@@H]1O (stereo partly drawn) [D-Glucosamine Hydrochloride] | 1.16 | 
22 | O=C[C@H](O)[C@@H](O)[C@H](O)[C@H](O)COP(=O)([O-])[O-].[Na+].[Na+] [D-Glucose-6-Phosphate sodium salt] | 0.99 | 
23 | O=C[C@H](O)[C@@H](O)[C@H](O)[C@H](O)CO [D-Glucose] | 1.33 | 

Row | SMILES | Ammonium/OD ratio [1] | Ammonium/OD ratio
24 | O=C[C@H](O)[C@@H](O)[C@H](O)[C@H](O)C(=O)O [D-Glucuronic Acid] | 1.02 | 
25 | OC[C@H]1O[C@H](O[C@H]2[C@H](O)[C@@H](O)[C@H](O)O[C@@H]2CO)[C@H](O)[C@@H](O)[C@@H]1O [D-Maltose monohydrate] | 0.94 | 
26 | OC[C@@H](O)[C@@H](O)[C@H](O)[C@H](O)CO [D-Mannitol] | 0.90 | 
27 | O=C[C@@H](O)[C@@H](O)[C@H](O)[C@H](O)CO [D-Mannose] | 0.96 | 
28 | O.O.O.O.O.OC[C@H]1O[C@H](OC[C@H]2O[C@H](O[C@]3(CO)O[C@H](CO)[C@@H](O)[C@@H]3O)[C@H](O)[C@@H](O)[C@@H]2O)[C@H](O)[C@@H](O)[C@H]1O [D-Raffinose pentahydrate] | 1.03 | 
29 | O=C[C@H](O)[C@H](O)[C@H](O)CO [D-Ribose] | 1.36 | 
30 | N[C@H](CO)C(=O)O [D-Serine] | 1.81 | 
31 | OC[C@@H](O)[C@@H](O)[C@H](O)[C@@H](O)CO [D-Sorbitol] | 0.82 | 
32 | O=C(CO)[C@@H](O)[C@@H](O)[C@H](O)CO [D-Tagatose] | 1.14 | 
33 | O.O.OC[C@H]1O[C@H](O[C@H]2O[C@H](CO)[C@@H](O)[C@H](O)[C@H]2O)[C@H](O)[C@@H](O)[C@@H]1O [D-Trehalose dihydrate] | 0.82 | 
34 | O=C[C@H](O)[C@@H](O)[C@H](O)CO [D-Xylose] | 1.06 | 
35 | CCO [Ethanol] | 0.91 | 
36 | NC(=O)[C@@H](O)[C@@H](O)[C@H](O)[C@@H](O)C=O [Glucuronamide] | 1.38 | 
37 | NCC(=O)N[C@@H](CCC(=O)O)C(=O)O [Gly-Glu] (H-Gly-Glu-OH) | 1.12 | 
38 | OCC(O)CO [Glycerol] | 1.19 | 
39 | NCC(=O)O [Glycine] | 0.94 | 
40 | O=C(O)CO [Glycolic Acid] | 1.01 | 
41 | OC[C@H]1O[C@@H](n2cnc3c(O)ncnc32)[C@H](O)[C@@H]1O [Inosine] | 1.44 | 
42 | C=C(CC(=O)O)C(=O)O [Itaconic Acid] | 1.40 | 
43 | C[C@H](N)C(=O)O [L-Alanine] | 1.45 | 
44 | O=C[C@H](O)[C@@H](O)[C@@H](O)CO [L-Arabinose] | 1.70 | 
45 | N=C(N)NCCC[C@H](N)C(=O)O [L-Arginine] |  | 1.79
46 | NC(=O)C[C@H](N)C(=O)O [L-Asparagine] | 1.16 | 

Row | SMILES | Ammonium/OD ratio [1] | Ammonium/OD ratio
47 | N[C@@H](CC(=O)O)C(=O)O [L-Aspartic Acid] | 1.24 | 
48 | NC(=O)NCCC[C@H](N)C(=O)O [L-Citrulline] | 1.46 | 
49 | Cl.N[C@@H](CS)C(=O)O.O [L-Cysteine hydrochloride monohydrate] | 1.00 | 
50 | C[C@H](O)[C@@H](O)[C@@H](O)[C@H](O)C=O [L-Fucose] | 1.06 | 
51 | N[C@@H](CCC(=O)O)C(=O)[O-].O.[K+] [L-Glutamic acid monopotassium salt monohydrate] | 0.98 | 
52 | NC(=O)CC[C@H](N)C(=O)O [L-Glutamine] | 1.28 | 
53 | N[C@@H](Cc1c[nH]cn1)C(=O)O [L-Histidine] | 1.10 | 
54 | CC[C@H](C)[C@H](N)C(=O)O [L-Isoleucine] | 1.13 | 
55 | CC(C)C[C@H](N)C(=O)O [L-Leucine] | 1.07 | 
56 | NCCCC[C@H](N)C(=O)O [L-Lysine] |  | 1.02
57 | O.O=C([O-])C[C@H](O)C(=O)[O-].[Na+].[Na+] [L-Malic acid disodium salt monohydrate] |  | 1.43
58 | CSCC[C@H](N)C(=O)O [L-Methionine] | 1.67 | 
59 | N[C@@H](Cc1ccccc1)C(=O)O [L-Phenylalanine] | 1.40 | 
60 | O=C(O)[C@@H]1CCCN1 [L-Proline] | 0.94 | 
61 | C[C@H](O)[C@H](O)[C@@H](O)[C@@H](O)C=O.O [L-Rhamnose monohydrate] | 1.09 | 
62 | N[C@@H](CO)C(=O)O [L-Serine] | 1.20 | 
63 | O=C(CO)[C@@H](O)[C@H](O)[C@@H](O)CO [L-Sorbose] | 1.90 | 
64 | C[C@@H](O)[C@H](N)C(=O)O [L-Threonine] | 1.35 | 
65 | N[C@@H](Cc1c[nH]c2ccccc12)C(=O)O [L-Tryptophan] |  | 1.23
66 | CC(C)[C@H](N)C(=O)O [L-Valine] | 0.94 | 
67 | CC(=O)N[C@H]1C(O)O[C@H](CO)[C@@H](O)[C@@H]1O (stereo partly drawn) [N-Acetyl-D-Glucosamine] | 1.07 | 
68 | O=C1NC(=O)C(=O)N1 [Parabanic Acid] | 1.12 | 
69 | CC(=O)[O-].[K+] [Potassium acetate] |  | 0.98

Row | SMILES | Ammonium/OD ratio [1] | Ammonium/OD ratio
70 | O.O=C([O-])C(=O)[O-].[K+].[K+] [Potassium oxalate monohydrate] |  | 1.13
71 | Cl.Cl.NCCCCN [Putrescine Dihydrochloride] |  | 1.20
72 | C[C@@H](O)C(=O)[O-].[Na+] [Sodium D-Lactate] | 1.16 | 
73 | O=C[O-].[Na+] [Sodium Formate] | 0.72 | 
74 | O=C([O-])/C=C/C(=O)[O-].[Na+].[Na+] [Sodium Fumarate dibasic] | 0.81 | 
75 | C[C@H](O)C(=O)[O-].[Na+] [Sodium L-Lactate] | 1.35 | 
76 | CCCC(=O)[O-].[Na+] [Sodium butyrate] | 1.04 | 
77 | CCCCCCCC(=O)[O-].[Na+] [Sodium octanoate] | 1.21 | 
78 | CCC(=O)[O-].[Na+] [Sodium propionate] | 0.94 | 
79 | CC(=O)C(=O)[O-].[Na+] [Sodium pyruvate] | 0.96 | 
80 | O.O.O.O.O.O.O=C([O-])CCC(=O)[O-].[Na+].[Na+] [Sodium succinate dibasic hexahydrate] | 1.03 | 
81 | OC[C@H]1O[C@@](CO)(O[C@H]2O[C@H](CO)[C@@H](O)[C@H](O)[C@H]2O)[C@@H](O)[C@@H]1O [Sucrose] | 1.07 | 
82 | Cc1cn([C@H]2C[C@H](O)[C@@H](CO)O2)c(=O)[nH]c1=O [Thymidine] | 1.06 | 
83 | Cc1c[nH]c(=O)[nH]c1=O [Thymine] | 1.13 | 
84 | O.O.O=C([O-])CC(O)(CC(=O)[O-])C(=O)[O-].[Na+].[Na+].[Na+] [Trisodium citrate dihydrate] |  | 1.73
85 | O=c1ccn([C@@H]2O[C@H](CO)[C@@H](O)[C@H]2O)c(=O)[nH]1 [Uridine] | 0.96 | 
86 | OC[C@@H](O)[C@H](O)[C@@H](O)CO [Xylitol] | 1.13 | 
87 | OC[C@H]1O[C@@H]2O[C@H]3[C@H](O)[C@@H](O)[C@@H](O[C@H]4[C@H](O)[C@@H](O)[C@@H](O[C@H]5[C@H](O)[C@@H](O)[C@@H](O[C@H]6[C@H](O)[C@@H](O)[C@@H](O[C@H]7[C@H](O)[C@@H](O)[C@@H](O[C@H]1[C@H](O)[C@H]2O)O[C@@H]7CO)O[C@@H]6CO)O[C@@H]5CO)O[C@@H]4CO)O[C@@H]3CO [a-Cyclodextrin] | 1.07 | 
88 | O.O=C([O-])CCC(=O)C(=O)[O-].[Na+].[Na+] [a-Ketoglutaric acid disodium salt hydrate] | 1.26 | 
89 | O[C@H]1[C@H](O)[C@@H](O)[C@H](O)[C@@H](O)[C@H]1O [m-Inositol] | 1.25 | 
